Measurements from PubChem BioAssay AID192 (DTP/NCI, 2004).
Several values for one entry are separate records, joined by “and”; a condition that tells them apart may be missing. Identical values can stand only once. Toxic doses and inconclusive results are not listed.

Tested on: BDF1 mice, B16 melanoma ip, median survival T/C
Assay: NCI In Vivo Anticancer Drug Screen. Data for tumor model B16 Melanoma (intraperitoneal) in B6D2F1 (BDF1) mice
Details: endpoint: median survival time, higher = longer survival
Outline: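 Tumor-bearing mice received test compound or vehicle. Survival or tumor size was then measured in both groups. The treated-group figure was divided by the control-group figure.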

[1] = dose: 25.0 mg/kg/injection, schedule: Q01DX009 (ip), vehicle: saline with Tween-80
[2] = dose: 50.0 mg/kg/injection, schedule: Q01DX009 (ip), vehicle: saline with Tween-80
[3] = dose: 50.0 mg/kg/injection, schedule: Q01DX009 (ip), vehicle: Klucel (hydroxypropylcellulose) (HPC)
[4] = dose: 100.0 mg/kg/injection, schedule: Q01DX009 (ip), vehicle: Klucel (hydroxypropylcellulose) (HPC)
[5] = dose: 200.0 mg/kg/injection, schedule: Q01DX009 (ip), vehicle: Klucel (hydroxypropylcellulose) (HPC)
[6] = dose: 12.5 mg/kg/injection, schedule: Q01DX009 (ip), vehicle: saline with Tween-80

In the case of `Cc1ccc([N+](=O)[O-])cc1NC(=O)Oc1ccc(Cl)cc1Cl`, the T/C [1] is reported as 93 % of control and the T/C [2] is reported as 90 % of control.

In the case of `C=C(C)C(=O)OCC12CCC(C)=CC1OC1C(O)C(OC(=O)CCl)C2(C)C12CO2` (stereo not given), the T/C (dose: 0.25 mg/kg/injection, schedule: Q01DX009 (ip), vehicle: water) is reported as 122 % of control, the T/C (dose: 0.5 mg/kg/injection, schedule: Q01DX009 (ip), vehicle: water) is reported as 124 % of control and the T/C (dose: 1.0 mg/kg/injection, schedule: Q01DX009 (ip), vehicle: water) is reported as 152 % of control. For the same molecule, the T/C (dose: 2.0 mg/kg/injection, schedule: Q01DX009 (ip), vehicle: water) was 152 % of control.

With `Nc1nc(N=Nc2ccc(O)cc2)cc(=O)[nH]1` the T/C (dose: 100.0 mg/kg/injection, schedule: Q01DX009 (ip), vehicle: other) was 109 % of control, the T/C (dose: 200.0 mg/kg/injection, schedule: Q01DX009 (ip), vehicle: other) was 105 % of control and the T/C (dose: 400.0 mg/kg/injection, schedule: Q01DX009 (ip), vehicle: other) was 87 % of control.

In the case of `Oc1ccc(/C=N\Nc2ccccn2)c(O)c1`, the T/C (dose: 12.5 mg/kg/injection, schedule: Q01DX009 (ip), vehicle: Klucel (hydroxypropylcellulose) (HPC)) is reported as 90 % of control, the T/C (dose: 25.0 mg/kg/injection, schedule: Q01DX009 (ip), vehicle: Klucel (hydroxypropylcellulose) (HPC)) is reported as 102 % of control and the T/C [3] is reported as 98 % of control. The T/C [4] was 115 % of control and the T/C [5] was 124 % of control.

With `CCCCC(CC)C(O)C(C)C(C)O` (stereo not given) the T/C [4] was 97 % of control and the T/C [5] was 87 % of control.

With `CC(C)N(C(=O)COc1ccc(Cl)cc1)c1ccccc1` the T/C [3] was 86 % of control, the T/C [4] was 106 % of control and the T/C [5] was 86 % of control.

`O=C(CNC(=O)Nc1ccc(C2=NCCN2)cc1)Nc1ccc(C2=NCCN2)cc1` was tested, and the T/C (dose: 6.25 mg/kg/injection, schedule: Q01DX009 (ip), vehicle: saline with Tween-80) was 97 % of control, the T/C [6] was 100 % of control and the T/C [1] was 97 % of control.

In the case of `O=C(O)C(O)C(O)C(O)C(O)C(=O)O` (stereo not given), the T/C (dose: 300.0 mg/kg/injection, schedule: Q01DX009 (ip), vehicle: Klucel (hydroxypropylcellulose) (HPC)) is reported as 100 % of control, the T/C (dose: 600.0 mg/kg/injection, schedule: Q01DX009 (ip), vehicle: Klucel (hydroxypropylcellulose) (HPC)) is reported as 93 % of control and the T/C (dose: 900.0 mg/kg/injection, schedule: Q01DX009 (ip), vehicle: Klucel (hydroxypropylcellulose) (HPC)) is reported as 91 % of control.

In the case of `Cc1[nH]c(=O)[nH]c(=O)c1NC(=O)c1ccccc1[N+](=O)[O-]`, the T/C [6] is reported as 100 % of control, the T/C [1] is reported as 102 % of control and the T/C [2] is reported as 102 % of control.

With `Cc1ccc(C(=O)NC2C(=O)NC(C(C)C)C(=O)N3CCCC3C(=O)N(C)CC(=O)N(C)C(C(C)C)C(=O)OC2C)c2c1Oc1c(c(C(=O)NC3C(=O)NC(C(C)C)C(=O)N4CCCC4C(=O)N(C)CC(=O)N(C)C(C(C)C)C(=O)OC3C)c3nc(-c4ccccc4)c(=O)oc3c1C)N2` (stereo not given) the T/C (dose: 0.13 mg/kg/injection, schedule: Q04DX003 (ip), vehicle: saline + alcohol) was 124 % of control, the T/C (dose: 0.13 mg/kg/injection, schedule: Q04DX003 (ip), vehicle: water) was 155 % of control and the T/C (dose: 0.25 mg/kg/injection, schedule: Q04DX003 (ip), vehicle: saline + alcohol) was 152 % of control. The T/C (dose: 0.5 mg/kg/injection, schedule: Q04DX003 (ip), vehicle: saline + alcohol) was 156 % of control, the T/C (dose: 0.5 mg/kg/injection, schedule: Q04DX003 (ip), vehicle: water) was 163 % of control and the T/C (dose: 1.0 mg/kg/injection, schedule: Q04DX003 (ip), vehicle: saline + alcohol) was 191 % of control. The T/C (dose: 1.0 mg/kg/injection, schedule: Q04DX003 (ip), vehicle: water) was 173 % of control.

In the case of `c1ccc(C2CN3CCSC3=N2)cc1` (stereo not given), the T/C (dose: 1.56 mg/kg/injection, schedule: Q01DX009 (ip), vehicle: saline) is reported as 103 % of control, the T/C (dose: 3.12 mg/kg/injection, schedule: Q01DX009 (ip), vehicle: saline) is reported as 104 % of control and the T/C (dose: 6.25 mg/kg/injection, schedule: Q01DX009 (ip), vehicle: saline) is reported as 96 % of control. For the same molecule, the T/C (dose: 12.5 mg/kg/injection, schedule: Q01DX009 (ip), vehicle: saline) was 94 % of control and the T/C (dose: 25.0 mg/kg/injection, schedule: Q01DX009 (ip), vehicle: saline) was 100 % of control.

For `Cc1cc(C)c(-c2c(C)cc(C)c(N)c2C)c(C)c1N`, the T/C (dose: 75.0 mg/kg/injection, schedule: Q04DX003 (ip), vehicle: Klucel (hydroxypropylcellulose) (HPC)) was 91 % of control.

For `CCCCCCCNC(=O)Nc1cccc(Cl)c1C`, the T/C [3] was 99 % of control, the T/C [4] was 90 % of control and the T/C [5] was 95 % of control.

For `CC(=O)[O][Pb]([CH2]C(C)C)([CH2]C(C)C)[CH2]C(C)C`, the T/C (dose: 0.09 mg/kg/injection, schedule: Q01DX009 (ip), vehicle: Klucel (hydroxypropylcellulose) (HPC)) was 94 % of control, the T/C (dose: 0.19 mg/kg/injection, schedule: Q01DX009 (ip), vehicle: Klucel (hydroxypropylcellulose) (HPC)) was 98 % of control and the T/C (dose: 0.38 mg/kg/injection, schedule: Q01DX009 (ip), vehicle: Klucel (hydroxypropylcellulose) (HPC)) was 93 % of control. The T/C (dose: 0.75 mg/kg/injection, schedule: Q01DX009 (ip), vehicle: Klucel (hydroxypropylcellulose) (HPC)) was 88 % of control and 98 % of control.

For `CC(=O)Oc1ccc(OC(C)=O)c2c1C(=O)C=CC2=O`, the T/C (dose: 0.5 mg/kg/injection, schedule: Q01DX009 (ip), vehicle: Klucel (hydroxypropylcellulose) (HPC)) was 86 % of control and the T/C (dose: 1.0 mg/kg/injection, schedule: Q01DX009 (ip), vehicle: Klucel (hydroxypropylcellulose) (HPC)) was 88 % of control.
